The test system of this test is Mycosphaerella graminicola; Anamorph: Septoria tritici; Bayer Code SEPTTR. Nature of the test: Leaf blotch of wheat, foliar fungicide treatment, one day protectant (1DP) or three day curative (3DC). The test is classed as in vivo, Septoria tritici on wheat plants (variety Yuma). Particulars: Zymoseptoria tritici; for pest or weed control at 25 ppm / pest or weed control at 100 ppm: rating of percent disease control; for pest or weed control at 50 ppm / pest or weed control at 200 ppm: % disease control rating, one day protectant.

Where [1] appears, read: 24 h, one day protectant (1DP), read-out: SETTTR 1DP 25 ppm.
Where [2] appears, read: 24 h, one day protectant (1DP), read-out: SEPTTR 1DP 100 ppm.
The mark [3] stands for this setting: 72 h, three day curative (3DC), read-out: SEPTTR 3DC 25 ppm.
Setting [4] is: 72 h, three day curative (3DC), read-out: SEPTTR 3DC 100 ppm.

Where two headings read alike, the source gives them in different places.

Take `COc1cccc(COc2ncc(F)c(N)n2)c1F` [Compound 794]: the pest or weed control at 25 ppm runs as follows: under setting [1], 76 to 100%; under setting [3], 76 to 100%. The pest or weed control at 100 ppm runs as follows: under setting [2], 76 to 100%; under setting [4], 76 to 100%.

For the compound `Fc1ccc(COc2ncc(F)c(/N=C/N3CCOCC3)n2)cc1` [Compound 795], the pest or weed control at 25 ppm is 76 to 100% under setting [1] and 76 to 100% under setting [3]. In addition, the pest or weed control at 100 ppm is 76 to 100% under setting [2] and 76 to 100% under setting [4].

As for `COc1c(F)cc(F)cc1COc1ncc(F)c(N)n1` [Compound 796], the pest or weed control at 25 ppm by setting is: under setting [1], 76 to 100%; under setting [3], 76 to 100%. The pest or weed control at 100 ppm runs as follows: under setting [2], 76 to 100%; under setting [4], 76 to 100%.

With `COc1ccccc1COc1ncc(F)c(NC(=S)NCc2ccccc2F)n1` [Compound 797], the pest or weed control at 25 ppm is 51 to 75% under setting [1] and 26 to 50% under setting [3]. Also, the pest or weed control at 100 ppm runs as follows: under setting [2], 76 to 100%; under setting [4], 76 to 100%.

For `CC(Oc1ncc(F)c(N)n1)c1cccc(I)c1` (stereo not drawn) [Compound 798], the pest or weed control at 25 ppm by setting is: under setting [1], 76 to 100%; under setting [3], 76 to 100%. For the same compound, the pest or weed control at 100 ppm runs as follows: under setting [2], 76 to 100%; under setting [4], 76 to 100%.

As for `O=C(Nc1ccccc1F)Nc1nc(OCc2cccs2)ncc1F` [Compound 799], the pest or weed control at 25 ppm lay in the range of 0 to 25% under setting [1] and 0 to 25% under setting [3]. Also, the pest or weed control at 100 ppm runs as follows: under setting [2], 0 to 25%; under setting [4], 0 to 25%.

In the case of `CC(C)(C)OCCOc1ncc(F)c(N)n1` [Compound 802], the pest or weed control at 25 ppm by setting is: under setting [1], 0 to 25%; under setting [3], 0 to 25%. For the same compound, the pest or weed control at 100 ppm runs as follows: under setting [2], 0 to 25%; under setting [4], 0 to 25%.

As for `Fc1ccccc1CNc1nc(OC2CCCCC2)ncc1F` [Compound 803], for the setting “24 h”, the pest or weed control at 50 ppm lay within 0 to 25% and the pest or weed control at 200 ppm fell in the range of 51 to 75%.

With `Fc1ccc(COc2ncc(F)c(NCCc3ccccc3)n2)cc1` [Compound 805], for the setting “24 h”, the pest or weed control at 50 ppm is 51 to 75% and the pest or weed control at 200 ppm was in the range of 76 to 100%.

Where the note is “24 h”, `Fc1cnc(OCc2cccc(C(F)(F)F)c2)nc1NCc1cccs1` [Compound 806] yielded a pest or weed control at 200 ppm of 76 to 100%.

On to `Fc1cnc(OCc2ccccc2Cl)nc1NC1CC1` [Compound 807], for which the pest or weed control at 200 ppm (24 h) lay in the range of 76 to 100%.

For the compound `Fc1cnc(OCc2ccc(Cl)cc2)nc1NCc1cccs1` [Compound 808], under “24 h”, the pest or weed control at 50 ppm lay within 76 to 100% and the pest or weed control at 200 ppm fell in the range of 76 to 100%.

Where the note is “24 h”, `Fc1ccccc1CNc1nc(OCc2ccccc2F)ncc1F` [Compound 809] returned a pest or weed control at 50 ppm of 51 to 75% and a pest or weed control at 200 ppm of 76 to 100%.

In the case of `Fc1cnc(OCc2ccccc2Cl)nc1NCc1cccs1` [Compound 810], the pest or weed control at 200 ppm (24 h) is 76 to 100%.

Under “24 h”, `Fc1cnc(OCc2ccc(C(F)(F)F)cc2)nc1NCc1ccc(Cl)cc1` [Compound 811] returned a pest or weed control at 50 ppm of 76 to 100% and a pest or weed control at 200 ppm of 76 to 100%.

In turn, `COc1cccc(COc2ncc(F)c(NC3CC3)n2)c1` [Compound 812] returned a pest or weed control at 200 ppm (24 h) of 76 to 100%.

For the setting “24 h”, `Fc1cnc(OCc2cccc(C(F)(F)F)c2)nc1NCc1ccc(Cl)cc1` [Compound 813] displayed a pest or weed control at 50 ppm of 76 to 100% and a pest or weed control at 200 ppm of 76 to 100%.

In the case of `Fc1cnc(OCc2cc(Cl)cc(Cl)c2)nc1NCc1cccs1` [Compound 814], for the setting “24 h”, the pest or weed control at 200 ppm was in the range of 76 to 100%.

For the setting “24 h”, `CC(=O)Nc1nc(OCc2cccc(Oc3ccccc3)c2)ncc1F` [Compound 815] registered a pest or weed control at 50 ppm of 76 to 100% and a pest or weed control at 200 ppm of 76 to 100%.

With `Fc1cnc(OCc2ccc(Cl)cc2)nc1NCc1ccc(Cl)cc1` [Compound 816], under “24 h”, the pest or weed control at 50 ppm was 76 to 100% and the pest or weed control at 200 ppm lay in the range of 76 to 100%.

For the compound `Fc1ccccc1CNc1nc(OCc2ccco2)ncc1F` [Compound 817], for the setting “24 h”, the pest or weed control at 50 ppm was in the range of 26 to 50% and the pest or weed control at 200 ppm lay in the range of 76 to 100%.

The record behind these values is patent US9204653B2, “5-fluoro pyrimidine derivatives” (DOW AGROSCIENCES LLC, priority 2008, dated 2015).
